Reference: patent US12539335B2, “Tricyclic polypeptide conjugated drug and use thereof” (CONJUSTAR (ZHUHAI) BIOLOGICS CO., LTD., priority 2021, dated 2026)
Counter-ions that a name gives are not always drawn. Starred links: 1 amine or outer side, 2 acyl side, 3 side chain; linkers in the order of their positions; H or OH if unused. Positions of bridges follow the written chain, without caps; N, C: chain ends. Non-standard residues stand in square brackets, D forms with d. Residues, ends and D or L forms follow the SMILES beside them. Chains are numbered I, II in the order given. *: point of attachment. TATA = O=C(CC[*:1])N1CN(C(=O)CC[*:2])CN(C(=O)CC[*:3])C1; Dolaproine = CO[C@@H]([C@@H]1CCCN1)[C@@H](C)C(=O)O; Dil = CC[C@H](C)[C@H](NC)[C@@H](CC(=O)O)OC; 1Nal = N[C@@H](Cc1cccc2ccccc12)C(=O)O; X2 = O=C(CCCC(=O)[*:2])NCCC(=O)[*:1]; PABC = O=C(OCc1ccc(N[*:1])cc1)[*:2]; X1 = C[C@@H](N*)[C@@H](O)c1ccccc1; Hyp = O=C(O)[C@@H]1C[C@@H](O)CN1; hArg = N=C(N)NCCCC[C@H](N)C(=O)O; Cit = NC(=O)NCCC[C@H](N)C(=O)O; Pen = CC(C)(S)[C@H](N)C(=O)O; NMeV = CN[C@H](C(=O)O)C(C)C; Sar = CNCC(=O)O

Key:
[1] = Metabolic stability in hepatocytes, humans; type: in vitro ADME; conditions: human, hepatocytes (cryopreserved, suspension), 0.5×10^6 cells/mL
Protocol: (§1) Test Example 7: Metabolic Stability of the Compounds of the Present Invention in Hepatocytes from Mice, Rats, Cynomolgus Macaques, and Humans
(§2) To investigate the metabolic stability of the compounds of the present invention in hepatocytes from mice, rats, Cynomolgus macaques, and humans.
(§3) Incubations were performed in 96-well plates using an external extraction method. Several 96-well sample precipitation plates, designated T0, T15, T30, T60, T90, TO-MC, T90-MC, and blank matrix, were prepared, respectively. The recovery culture medium and incubation culture medium were removed in advance and placed in a 37° C. water bath for preheating. […]
(§4) At the end of the incubation at the corresponding time point, the incubation plates were removed, from which 25 μL of a compound mixture with the cells and a control compound mixture with the cells were removed and added to sample plates containing 125 μL of stop buffer, respectively. […] All samples were mixed uniformly and then analyzed by the LC-MS/MS method.
(§5) The concentration of the compound to be tested and the concentration of the control in the sample were semi-quantitatively determined by the liquid chromatography-tandem mass spectrometry (LC-MS/MS) method without a standard curve and quality control sample. […]

NCI-H292 cells = assay: In vitro anti-proliferative activity, CellTiter-Glo, NCI-H292; type: cell-based, Human; conditions: NCI-H292, 72 h
Protocol: (§6) Test Example 2: In Vitro Anti-Proliferative Activity of the Compounds of the Present Invention on Nci-H292 and Mda-Mb-468 Cells
(§7) To investigate the effect of the compounds of the present invention on inhibiting cell proliferation by detecting the effect of the compounds on cell activity in vitro in tumor cell lines MDA-MB-468 and NCI-H292.
(§8) The tumor cell lines were cultured in a 37° C., no CO2 incubator and a 37° C., 5% CO2 incubator according to the culture conditions shown in Table 8, respectively. The cells were periodically passaged, and cells in a logarithmic growth phase were taken for plating.
(§9) Cells in a logarithmic growth phase were harvested and centrifuged at 1000 rpm for 3 min at room temperature. The supernatant was discarded, and the cells were resuspended in 5 mL of a culture medium. Then, 20 μL of the cell suspension was pipetted and mixed with trypan blue at 1:1 for staining for 3 min to detect cell viability and to count viable cells. The cell density was adjusted to 3000 cells/well. Then, 90 μL of the cell suspension was added to each culture plate well, and a cell-free culture medium was added to blank control wells. The culture plate was incubated overnight in a 37° C., no CO2, and 100% relative humidity incubator and a 37° C., 5% CO2, and 100% relative humidity incubator, respectively.
(§10) Preparation of a 400× compound stock plate: The compound to be tested was gradient diluted with DMSO from the highest to the lowest concentration.
(§11) Preparation of a 10× compound working solution: 78 μL of a cell culture medium was added to a V-bottomed 96-well plate, and 2 μL of the compound solution of each concentration was pipetted from the 400× compound stock plate into the cell culture medium in the 96-well plate. Then, 2 μL of DMSO was added to vehicle control and blank control. […]
(§12) The detection was performed according to the instructions of the Promega CellTiter-Glo Luminescent Cell Viability Assay kit (Promega-G7573). The luminescence signal was detected on the En Vision® Multi-mode Plate Reader (En Vision 2104-10). […]

[2] = Stability in plasma, humans; type: in vitro ADME; conditions: human, 37° C.
Protocol: Test Example 9: Stability Analysis of the Compounds of the Present Invention in Plasma from Different Species
To test the stability of the compounds of the present invention in plasma from SD rats, Cynomolgus macaques, and humans.
The corresponding incubation plates, including T0, T10, T30, T60, T120, and T240 incubation plates, were added with a 2 μL working solution of the compound to be tested (100 μM). Three parallel wells were prepared for each sample. Then, 98 μL of blank plasma from SD rats, Cynomolgus macaques, and humans was added to the corresponding incubation plates to which the working solution had been added. All samples were incubated in a 37° C. water bath. […] At the end of each incubation time point, the corresponding incubation plate was removed, added with stop buffer, precipitated, and centrifuged for 20 minutes. Then, 150 μL of the supernatant was analyzed by the LC-MS/MS method. The concentration of the compound to be tested in the sample was semi-quantitatively determined by the liquid chromatography-tandem mass spectrometry (LC-MS/MS) method.

[3] = Metabolic stability in hepatocytes, CD-1 mice; type: in vitro ADME; conditions: mouse, hepatocytes (cryopreserved, suspension), CD-1 mice hepatocytes, 0.5×10^6 cells/mL
Protocol: as §1, §2, §3, §4, §5

MDA-MB-468 cells = assay: In vitro anti-proliferative activity, CellTiter-Glo, MDA-MB-468; type: cell-based, Human; conditions: MDA-MB-468, 72 h
Protocol: as §6, §7, §8, §9, §10, §11, §12

CC[C@H](C)[C@@H]([C@@H](CC(=O)N1CCC[C@H]1[C@H](OC)[C@@H](C)C(=O)N[C@H](C)[C@@H](O)c1ccccc1)OC)N(C)C(=O)[C@@H](NC(=O)[C@H](C(C)C)N(C)C(=O)OCc1ccc(NC(=O)[C@H](CCCNC(N)=O)NC(=O)[C@@H](NC(=O)CCCC(=O)NCCC(=O)N(C)CC(=O)N(C)CC(=O)N(C)CC(=O)N(C)CC(=O)N(C)CC(=O)N(C)CC(=O)N(C)CC(=O)N(C)CC(=O)N(C)CC(=O)N(C)CC(=O)N[C@H]2CCCCNC(=O)C[C@@H](C(=O)N[C@H]3CSCCC(=O)N4CN5CN(C4)C(=O)CCSC(C)(C)[C@H](NC(=O)[C@@H](CC(=O)O)NC(=O)[C@H](Cc4cccc6ccccc46)NC(=O)[C@@H]4CCCN4C3=O)C(=O)N[C@@H](CCSC)C(=O)N[C@@H](CCCCNC(=N)N)C(=O)N[C@@H](CC(=O)O)C(=O)N[C@@H](Cc3c[nH]c4ccccc34)C(=O)N[C@@H](CO)C(=O)N[C@@H]([C@@H](C)O)C(=O)N3CCC[C@H]3C(=O)N3C[C@H](O)C[C@H]3C(=O)N[C@@H](Cc3c[nH]c4ccccc34)C(=O)N[C@H](C(N)=O)CSCCC5=O)NC(=O)CN(C)C2=O)C(C)C)cc1)C(C)C [Acetate salt of PDC_2] (I: [Sar][Sar][Sar][Sar][Sar][Sar][Sar][Sar][Sar][Sar]K[Sar]DCP[1Nal][dD][Pen]M[hArg]DWSTP[Hyp]WC-NH2 / II: V[Cit][PABC][NMeV]V[Dil][Dolaproine]-X1; lactam I:11-I:13; linker I:14-I:18-I:28 via TATA; linker I:N-II:N via X2)
half-life at 1 μM [1]: > 3.61 h
CLint scaled at 1 μM ([1]; read-out: CLint (liver)): < 17.8 mL/min/kg
IC50 (NCI-H292 cells): 42.1 nM
Maximum inhibition rate (NCI-H292 cells): 81.32%
Minimum inhibition rate (NCI-H292 cells): 1.55%
half-life at 2 μM [2]: > 9.63 h
half-life at 1 μM [3]: > 3.61 h
CLint scaled at 1 μM ([3]; read-out: CLint (liver)): < 75.9 mL/min/kg
IC50 (MDA-MB-468 cells): 32.3 nM
Maximum inhibition rate (MDA-MB-468 cells): 86.28%
Minimum inhibition rate (MDA-MB-468 cells): −10.28%
